# Reference: ChEMBL document CHEMBL1201862, “PubChem BioAssay data set” (2004)
# Calls of active or inactive are those of the source.
# Assays:
# [1] = target: T1, Sentrin-specific protease 7 (Homo sapiens, UniProt Q9BQF6); test: inhibition of human SENP7 cleavage activity – biochemical, luminescence, SAR follow-up (AID 504497); assay type: functional
# T1 sequence (Q9BQF6 whole entry): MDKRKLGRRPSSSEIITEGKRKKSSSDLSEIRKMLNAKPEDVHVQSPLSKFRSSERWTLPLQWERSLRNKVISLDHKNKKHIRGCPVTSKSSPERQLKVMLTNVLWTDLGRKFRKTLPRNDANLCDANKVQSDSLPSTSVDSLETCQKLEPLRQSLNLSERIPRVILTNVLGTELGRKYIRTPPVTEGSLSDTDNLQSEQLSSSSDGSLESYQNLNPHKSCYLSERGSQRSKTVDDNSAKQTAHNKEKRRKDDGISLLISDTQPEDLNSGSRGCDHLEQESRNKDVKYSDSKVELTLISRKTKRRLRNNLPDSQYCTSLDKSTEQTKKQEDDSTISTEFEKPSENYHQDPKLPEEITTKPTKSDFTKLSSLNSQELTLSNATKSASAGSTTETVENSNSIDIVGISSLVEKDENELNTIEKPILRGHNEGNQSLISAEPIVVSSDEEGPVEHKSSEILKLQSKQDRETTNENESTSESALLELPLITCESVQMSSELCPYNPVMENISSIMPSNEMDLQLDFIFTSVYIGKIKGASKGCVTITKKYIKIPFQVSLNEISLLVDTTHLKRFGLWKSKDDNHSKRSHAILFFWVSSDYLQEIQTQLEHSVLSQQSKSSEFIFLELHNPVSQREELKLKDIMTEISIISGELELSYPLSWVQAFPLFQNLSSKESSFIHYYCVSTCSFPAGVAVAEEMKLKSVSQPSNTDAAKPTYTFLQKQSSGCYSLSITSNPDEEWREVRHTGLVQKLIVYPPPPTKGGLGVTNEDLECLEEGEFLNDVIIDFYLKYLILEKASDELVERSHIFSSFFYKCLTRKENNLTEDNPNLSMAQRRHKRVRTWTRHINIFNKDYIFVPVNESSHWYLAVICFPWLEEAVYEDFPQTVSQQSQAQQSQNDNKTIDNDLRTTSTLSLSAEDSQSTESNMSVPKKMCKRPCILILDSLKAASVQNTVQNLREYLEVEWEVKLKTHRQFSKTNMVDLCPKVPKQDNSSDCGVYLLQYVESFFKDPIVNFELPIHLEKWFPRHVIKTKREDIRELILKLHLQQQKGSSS
# [2] = target: Dual specificity protein kinase CLK2 (Homo sapiens, UniProt P49760); assay type: functional
# [3] = target: T2, Histone-lysine N-methyltransferase NSD2 (Homo sapiens, UniProt O96028); assay type: biochemical
# T2 sequence (O96028 whole entry): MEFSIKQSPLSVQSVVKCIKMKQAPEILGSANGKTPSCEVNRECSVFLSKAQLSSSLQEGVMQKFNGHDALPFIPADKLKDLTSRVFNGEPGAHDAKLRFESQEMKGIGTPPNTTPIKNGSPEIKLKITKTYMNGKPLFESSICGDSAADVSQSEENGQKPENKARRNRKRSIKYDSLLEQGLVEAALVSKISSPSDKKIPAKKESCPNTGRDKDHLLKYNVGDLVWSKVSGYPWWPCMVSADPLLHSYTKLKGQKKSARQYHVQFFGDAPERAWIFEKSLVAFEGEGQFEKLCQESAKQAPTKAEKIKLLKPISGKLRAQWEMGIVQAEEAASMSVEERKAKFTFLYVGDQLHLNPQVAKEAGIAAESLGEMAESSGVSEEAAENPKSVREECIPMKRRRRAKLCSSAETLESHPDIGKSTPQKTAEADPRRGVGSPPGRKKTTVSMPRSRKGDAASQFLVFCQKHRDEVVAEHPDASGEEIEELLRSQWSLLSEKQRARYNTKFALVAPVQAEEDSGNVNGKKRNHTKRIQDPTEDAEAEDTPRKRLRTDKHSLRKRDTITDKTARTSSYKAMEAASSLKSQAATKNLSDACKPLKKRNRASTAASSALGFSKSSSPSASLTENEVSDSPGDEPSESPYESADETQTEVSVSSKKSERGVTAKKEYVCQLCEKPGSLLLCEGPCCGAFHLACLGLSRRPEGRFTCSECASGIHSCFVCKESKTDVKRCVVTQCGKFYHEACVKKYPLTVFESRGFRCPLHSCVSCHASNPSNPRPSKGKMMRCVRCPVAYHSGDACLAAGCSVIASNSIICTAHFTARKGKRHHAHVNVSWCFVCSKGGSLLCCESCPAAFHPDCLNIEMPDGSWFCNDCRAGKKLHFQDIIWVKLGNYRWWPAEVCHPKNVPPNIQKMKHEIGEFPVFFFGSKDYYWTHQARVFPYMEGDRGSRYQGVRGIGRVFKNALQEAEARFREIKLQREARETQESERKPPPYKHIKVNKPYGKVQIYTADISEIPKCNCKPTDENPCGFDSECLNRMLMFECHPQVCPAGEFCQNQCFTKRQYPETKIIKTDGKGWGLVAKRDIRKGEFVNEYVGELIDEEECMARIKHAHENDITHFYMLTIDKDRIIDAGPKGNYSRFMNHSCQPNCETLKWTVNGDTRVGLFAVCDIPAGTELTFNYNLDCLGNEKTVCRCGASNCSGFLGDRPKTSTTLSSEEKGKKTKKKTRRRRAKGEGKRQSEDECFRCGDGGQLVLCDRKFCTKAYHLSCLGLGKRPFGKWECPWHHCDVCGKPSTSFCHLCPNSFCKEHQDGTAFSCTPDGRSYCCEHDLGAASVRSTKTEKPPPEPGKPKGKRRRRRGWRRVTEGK
# Sequence of Dual specificity protein kinase CLK2 (P49760 whole entry): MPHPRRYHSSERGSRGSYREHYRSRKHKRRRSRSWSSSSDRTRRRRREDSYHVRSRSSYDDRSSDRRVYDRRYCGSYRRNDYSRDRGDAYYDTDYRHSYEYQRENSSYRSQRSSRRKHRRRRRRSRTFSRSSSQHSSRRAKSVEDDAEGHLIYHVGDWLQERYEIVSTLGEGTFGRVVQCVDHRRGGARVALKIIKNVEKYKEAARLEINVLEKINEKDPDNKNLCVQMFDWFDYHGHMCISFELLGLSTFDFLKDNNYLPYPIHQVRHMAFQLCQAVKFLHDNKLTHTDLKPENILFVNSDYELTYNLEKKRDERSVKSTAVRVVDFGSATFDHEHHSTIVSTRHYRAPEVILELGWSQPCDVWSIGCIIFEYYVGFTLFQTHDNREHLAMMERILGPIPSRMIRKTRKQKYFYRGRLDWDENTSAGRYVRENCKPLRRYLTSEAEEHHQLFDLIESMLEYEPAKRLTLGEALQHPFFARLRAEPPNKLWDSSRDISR
IC50 [1],Ki [2],Structure (SMILES),AC50 [3]
67.6 µM (active),–,COc1cc2cc(NC(C)=O)cc(NCc3ccccc3)c2cc1OC,–
–,0.794 nM (active),NC(COc1cncc(-c2ccc3c(c2)C(=Cc2ccc[nH]2)C(=O)N3)c1)Cc1ccccc1 (stereo unspecified),–
–,> 3980 nM (inactive),O=C1Nc2cc(-c3ccc(O)cc3)ccc2C1=Cc1ccc[nH]1,–
–,–,CCN(CC)CCOc1ccc2c(c1)C(=NNC(=O)c1ccccn1)c1cc(OCCN(CC)CC)ccc1-2,10.3 µM (active)
16.2 µM (active),–,CN(C)c1cc(N/N=C\c2ccccc2)nc(N(C)C)n1,4.93 µM (active)
